Data taken from patent US5230899A, “Methods and compositions for making liposomes” (SmithKline Beecham Corporation, priority 1991, dated 1993).
One block for each compound: values may come before it.

Experiments:
[1] = Efficiency of encapsulation / entrapment of drugs in DPPC:oleic acid:Arg (1:1:1) liposomes; format: physicochemical; conditions: 10 mg/ml DPPC:oleic acid:Arg (1:1:1) liposomes
Method: A number of drugs were encapsulated with 10 mg/ml DPPC:oleic acid:[MUT]:1:1) liposomes to illustrate medicament encapsulation for use as a drug delivery system.

in vivo = conditions: rat, iv, 5 mg/kg
Method: The bioavailibility of indomethacin in a gel formulation was compared with that of a suspenison of indomethacin, both being compared with an IV dose. Rats were dosed with 5 mg/Kg of indomethacin. Oleic acid, arginine and phosphatide #5 (described above) in the a the ratio 1:1:1 was used to make the gel. […] Blood levels were measured 0-30 hours.

% Entrapment ([1]; pH 7.8 PBS): 90%
SMILES: CC(C(=O)O)c1ccc(-c2ccccc2)c(F)c1 (stereo not drawn) [Flurbiprofen]

C0 (in vivo): 117 µg/mL
SMILES: COc1ccc2c(c1)c(CC(=O)O)c(C)n2C(=O)c1ccc(Cl)cc1 [indomethacin]

SMILES: CNCC(O)c1ccc(OC(=O)C(C)(C)C)c(OC(=O)C(C)(C)C)c1 (stereo not drawn) [Dipivalyl Epinephrine]
% Entrapment ([1]; pH 7.1 PBS): 80%
